Measurements from patent US4684647A, “Anti-bacterial pyrido-benzothiazine derivative and pharmaceutical composition therefor” (priority 1984, dated 1987).
≈ marks a conversion by molar mass, not a printed value.

What was measured:
Staphylococcus aureus = assay: MIC in agar, Staphylococcus aureus; format: cell-based; details: Isosensitest agar, 10^4 CFU, 24 h, 37° C.
Method: (§1) The antibacterial activity (minimum inhibiting concentration, MIC) of the compounds according to the invention has been determined in agar, by adding the compound under evaluation at concentrations of from 0.1 to 100 meg/ml by means of a "multipoint inoculator" (Denley Techn. Ltd., England); the medium used was Isosensitest agar (Oxoid); the bacterial inoculate was 10^4 colony forming unity (CFU) per inoculation point. The reading of the results was done after 24 hour-incubation in thermostat at 37° C.
(§2) The MIC was defined as the lowest concentration of chemotherapeutic agent still capable of totally inhibiting the growth of bacteria, as detected from a lack of colony development in the inoculation point.
(§3) The microorganisms used for evaluating the activity of the specific compounds have been: Escherichia coli, Klebsiella P., Enterobacter, Serratia, Citrobacter, Proteus (+), Salmonella, Pseudomonas, Staphylococcus. All the compounds according to the present invention are provided with antibacterial activity against one or more microorganism(s) among those above mentioned. Some of such compounds are absorbed after having been administered orally to the animals, and are particularly useful as disinfectants of the urinary tract in that they are excreted in a high percentage (50-70% over 24 hours after the administration of 50 mg/kg per os) as such, and in metabolic active form, through the urine.

Citrobacter = assay: MIC in agar, Citrobacter; format: cell-based; details: Isosensitest agar, 10^4 CFU, 24 h, 37° C., read-out: MIC, G = Citrobacter
Method: as §1, §2, §3

[1] = system: Proteus Morgani (indole +); assay: MIC in agar, Proteus Morgani (indole +); format: cell-based; details: Isosensitest agar, 10^4 CFU, 24 h, 37° C.; read-out: MIC, D = Proteus Morgani (indole +)
Method: as §1, §2, §3
D = Proteus Morgani (indole +)

[2] = tissue levels by HPLC after oral administration to rats; format: in vivo; details: rat; for concentration at 0.5 h / concentration at 1 h / concentration at 2 h / concentration at 4 h / concentration at 8 h / concentration at 15 h: 50 mg/kg oral; for Cmax: po
Klebsiella pneumoniae = assay: MIC in agar, Klebsiella pneumoniae; format: cell-based; details: Isosensitest agar, 10^4 CFU, 24 h, 37° C., read-out: MIC, E = Klebsiella pneumoniae
Method: as §1, §2, §3
E = Klebsiella pneumoniae

bacteria [3] = assay: antibacterial activity in vitro, overall; format: cell-based; details: in vitro, Table 1
Method: as §1, §2, §3

bacteria [4] = assay: antibacterial characteristics tested in vivo
Pseudomonas aeruginosa = assay: MIC in agar, Pseudomonas aeruginosa; format: cell-based; details: Isosensitest agar, 10^4 CFU, 24 h, 37° C., read-out: MIC, B = Pseudomonas aeruginosa
Method: as §1, §2, §3
B = P udomonas aeruginosa

in vivo = details: rat, po
Method: In Table 4 the percentage of urinary excretion of compound (h) is reported, as measured in the 24 hours successive to oral administration of the same to rats.
Each value is the average of three tested rats.
The tests have been performed in comparison with Ofloxacin, a well known antibacterial compound. The amount of excreted product has been determined with microbiological analysis, by using Klebsiella Pneumoniae as the testing microorganism.

[5] = plasma levels by HPLC after intraperitoneal and oral administration to rats; format: in vivo; details: rat; for concentration at 0.5 h: 0.50 h; for concentration at 0.5 h / concentration at 1 h / concentration at 2 h / concentration at 4 h / concentration at 8 h / concentration at 15 h: read-out: Plasma level
Method: We give hereinafter in Table 2 the haematic levels of compound (h) as measured in plasma by HPLC. Each value is the average of three tested rats.
More precisely in FIG. 1 the plasma levels in rats versus the time, are reported, after i.p. administration of 10 mg/kg and 25 mg/kg of compound (h), while in FIG. 2 the plasma levels are reported of compound (h) in rats, versus the time, after oral administration of 25, 50 and 100 mg/kg of said compound.

Enterobacter = assay: MIC in agar, Enterobacter; format: cell-based; details: Isosensitest agar, 10^4 CFU, 24 h, 37° C., read-out: MIC, F = Enterobacter
Method: as §1, §2, §3

Escherichia coli (981) = assay: MIC in agar, Escherichia coli (981); format: cell-based; details: Isosensitest agar, 10^4 CFU, 24 h, 37° C.
Method: as §1, §2, §3
A = Escherichia coli (981)

[6] = preliminary pharmacokinetic tests in dogs, oral; format: in vivo; details: dog, 20 mg/kg per os
Description: Preliminary tests performed in dogs with the compound (h) have given still better results than the tests performed in rats.

[7] = heart, read-out: Tissue level, heart
[8] = kidney, read-out: Tissue level, kidney
[9] = liver, read-out: Tissue level, liver
[10] = plasma, read-out: Tissue levels table, plasma

CN1CCN(c2c(F)cc3c(=O)c(C(=O)O)cn4c3c2SCC4)CC1 [Compound (h), 9-Fluoro-10[N-(4'-methyl)-piperazinyl]-7-oxo-2,3-dihydro-7H-pyrido[1,2,3 de][1,4]benzothiazine-6-carboxylic acid]
MIC (Staphylococcus aureus): 0.78 µg/mL (≈ 2.15 µM) | MIC (Citrobacter): 1.56 µg/mL (≈ 4.29 µM) | MIC [1]: 1.56 µg/mL (≈ 4.29 µM) | concentration at 0.5 h [2, 7]: 20000 ng/mL | concentration at 1 h [2, 7]: 31400 ng/mL | concentration at 2 h [2, 7]: 21000 ng/mL | concentration at 4 h [2, 7]: 18100 ng/mL | concentration at 8 h [2, 7]: 9930 ng/mL | concentration at 15 h [2, 7]: 5350 ng/mL | concentration at 0.5 h [2, 8]: 32600 ng/mL | concentration at 1 h [2, 8]: 61200 ng/mL | concentration at 2 h [2, 8]: 50600 ng/mL | concentration at 4 h [2, 8]: 42400 ng/mL | concentration at 8 h [2, 8]: 17800 ng/mL | concentration at 15 h [2, 8]: 7950 ng/mL | concentration at 0.5 h [2, 9]: 63500 ng/mL | concentration at 1 h [2, 9]: 80400 ng/mL | concentration at 2 h [2, 9]: 58100 ng/mL | concentration at 4 h [2, 9]: 34100 ng/mL | concentration at 8 h [2, 9]: 21600 ng/mL | concentration at 15 h [2, 9]: 11300 ng/mL | concentration at 0.5 h [2, 10]: 8750 ng/mL | concentration at 1 h [2, 10]: 10100 ng/mL | concentration at 2 h [2, 10]: 9950 ng/mL | concentration at 4 h [2, 10]: 6370 ng/mL | concentration at 8 h [2, 10]: 4950 ng/mL | concentration at 15 h [2, 10]: 4290 ng/mL | Cmax ([2]; heart, read-out: mean tissue level at the moment of peak, heart): 31400 ng/mL | Cmax ([2]; liver, read-out: mean tissue level at the moment of peak, liver (first of two values printed for liver)): 61200 ng/mL | Cmax ([2]; liver, read-out: mean tissue level at the moment of peak, liver (second of two values printed for liver)): 80400 ng/mL | presence in brain ([2]; oral): No presence | Kp ([2]; oral, various organs, read-out: ratio of organ concentration with respect to the concentration in plasma): > 3 | Cmax ([2]; plasma, read-out: mean level at the moment of peak, plasma): 10100 ng/mL | MIC (Klebsiella pneumoniae): < 0.39 µg/mL | anti-bacterial activity in vitro (bacteria [3]): very good and comparable anti-bacterial activity | in vivo antibacterial characteristics (bacteria [4]): systemic antibacterial compound having long-lasting activity | MIC (Pseudomonas aeruginosa): > 50 µg/mL | dose excreted at 24 h (in vivo; 20 mg/kg): 77.3 ± 6.81% | dose excreted at 24 h (in vivo; 50 mg/kg): 73 ± 4.58% | concentration at 0.5 h ([5]; plasma, ip, 10 mg/kg i.p.): 2700 ng/mL | concentration at 1 h ([5]; plasma, ip, 10 mg/kg i.p.): 2530 ng/mL | concentration at 2 h ([5]; plasma, ip, 10 mg/kg i.p.): 2170 ng/mL | concentration at 4 h ([5]; plasma, ip, 10 mg/kg i.p.): 1830 ng/mL | concentration at 8 h ([5]; plasma, ip, 10 mg/kg i.p.): 1630 ng/mL | concentration at 0.5 h ([5]; plasma, ip, 25 mg/kg i.p.): 8350 ng/mL | concentration at 1 h ([5]; plasma, ip, 25 mg/kg i.p.): 6290 ng/mL | concentration at 2 h ([5]; plasma, ip, 25 mg/kg i.p.): 6440 ng/mL | concentration at 4 h ([5]; plasma, ip, 25 mg/kg i.p.): 5010 ng/mL | concentration at 8 h ([5]; plasma, ip, 25 mg/kg i.p.): 3720 ng/mL | concentration at 0.5 h ([5]; plasma, po, 25 mg/kg os): 5330 ng/mL | concentration at 1 h ([5]; plasma, po, 25 mg/kg os): 7300 ng/mL | concentration at 2 h ([5]; plasma, po, 25 mg/kg os): 5670 ng/mL | concentration at 4 h ([5]; plasma, po, 25 mg/kg os): 3600 ng/mL | concentration at 8 h ([5]; plasma, po, 25 mg/kg os): 3270 ng/mL | concentration at 15 h ([5]; plasma, po, 25 mg/kg os): 2730 ng/mL | concentration at 0.5 h ([5]; plasma, po, 50 mg/kg os): 8750 ng/mL | concentration at 1 h ([5]; plasma, po, 50 mg/kg os): 10100 ng/mL | concentration at 2 h ([5]; plasma, po, 50 mg/kg os): 9950 ng/mL | concentration at 4 h ([5]; plasma, po, 50 mg/kg os): 6370 ng/mL | concentration at 8 h ([5]; plasma, po, 50 mg/kg os): 4950 ng/mL | concentration at 15 h ([5]; plasma, po, 50 mg/kg os): 4290 ng/mL | concentration at 0.5 h ([5]; plasma, po, 100 mg/kg os): 12500 ng/mL | concentration at 1 h ([5]; plasma, po, 100 mg/kg os): 20600 ng/mL | concentration at 2 h ([5]; plasma, po, 100 mg/kg os): 22200 ng/mL | concentration at 4 h ([5]; plasma, po, 100 mg/kg os): 15900 ng/mL | concentration at 8 h ([5]; plasma, po, 100 mg/kg os): 13000 ng/mL | concentration at 15 h ([5]; plasma, po, 100 mg/kg os): 6220 ng/mL | half-life ([5]; plasma, deduced from Table 2, read-out: half-life time (converted)): 10 h | absorption per os and i.p. [5]: quickly absorbed | plasma levels induced [5]: high and long-lasting levels both in the plasma and in the various organs | MIC (Enterobacter): < 0.39 µg/mL | MIC (Escherichia coli (981)): 0.78 µg/mL (≈ 2.15 µM) | plasma levels compared with rats [6]: sharply higher plasma levels | half-life ([6]; plasma, po): 24 h | Cmax ([6]; plasma, po, read-out: peak plasma level): 8000 ng/mL
